# Experimental data as given in article PMC9090415, “Discovery of small molecule inhibitors of Plasmodium falciparum apicoplast DNA polymerase” (Journal of Enzyme Inhibition and Medicinal Chemistry, 2022).
# Biological target: P. falciparum apicoplast DNA polymerase (Pf-apPOL) (Plasmodium falciparum, UniProt Q8ILY1)
# Assay: Fluorescence-based high-throughput DNA polymerase assay (molecular beacon), primary screen and dose-response
# Format: biochemical
# Conditions: for DNA Pol: 90 min, 10 µM
# Experimental: The HT assay employs a molecular beacon, a stem-loop DNA template with a Cy3 dye and the Black Hole Quencher on the 3′ and 5′ ends of the DNA, respectively. Pf-apPOL concentration is based on a calculated absorptivity of ε280 = 56750 M^−1 cm^−1. Reactions were carried out at 25 °C, using Corning 3575 […] (well-volume, 20 µL). Assays testing for compound inhibition composed of reaction buffer (pH 7.9 in 50 mM potassium acetate, 20 mM Tris-acetate and 10 mM magnesium acetate), Pf-apPOL (20 nM), DNA substrate (20 nM), dNTPs (6 µM), and compound (10 µM in DMSO). The DNA and nucleotide substrates (dNTPs) were at concentrations of 20 nM and 6 µM, respectively, in the assay. Pf-apPOL was incubated in the reaction buffer with dNTPs and the compound of interest (10 µM, in the assay) at 25 °C for 10 min. The DNA substrate was then added and the reaction was allowed to proceed for 90 min at 25 °C.
# Each assay plate contained 16 negative controls (no Pf-apPOL, DMSO present) and 16 positive controls (Pf-apPOL present, no DMSO). The fluorescence of each well was determined using a BioTek Synergy Neo fluorescence plate reader using excitation and emission wavelengths of 555 and 570 nm, respectively.
# In the above, Min is the average of fluorescence emission of the negative controls (substrate only), Max the average fluorescence emission from the positive controls (enzyme + substrate), and Test the emission from the assays in the presence of compounds (enzyme + compound + substrates). […] […] The IC50 of each compound was determined using Equation (2): (2) IC50= Vmax/(1+ (I/IC50)^n)
# In the above, n measures cooperativity, with n > 1 indicating synergistic binding of more than a single molecule of the compound.
# To identify apPOL inhibitors we utilised our previously developed high-throughput DNA polymerase assay. The HT assay is based on a molecular beacon DNA template that forms a stem-loop with a Cy3 dye and the Black Hole Quencher on the 3′ and 5′ ends of the DNA, respectively. DNA polymerase activity extends an annealed primer through the stem region, displacing the fluorophore from the quencher, thereby increasing its fluorescence (Figure 1(A)). The assay accurately recapitulates the kinetic behaviour of apPOL, as measured through more conventional low-throughput gel-based assays. The Z′ factor for the assay described here was 0.9 across all plates (data not shown).
# Figure 1. High-throughput screening. (A) The fluorescent-based DNA polymerase assay used to screen the compound libraries. The DNA template strand is a hairpin loop with a primer annealed to the loop. The 3’ end of the primer is 11 bases away from the 6 bp duplex. Strand displacement activity of the DNA polymerase separates the Cy3 dye from the Black hole quencher leading to an increase in fluorescent signal. (B) The high-throughput assay workflow. The DNA polymerase is incubated with […] compound for 10 min prior to addition of the hairpin substrate. The reaction is quenched at 3 different time points and the fluorescent signal is measured and % inhibition is determined using the provided equation.
# Chain of P. falciparum apicoplast DNA polymerase (Pf-apPOL) (Q8ILY1 entry or part of it): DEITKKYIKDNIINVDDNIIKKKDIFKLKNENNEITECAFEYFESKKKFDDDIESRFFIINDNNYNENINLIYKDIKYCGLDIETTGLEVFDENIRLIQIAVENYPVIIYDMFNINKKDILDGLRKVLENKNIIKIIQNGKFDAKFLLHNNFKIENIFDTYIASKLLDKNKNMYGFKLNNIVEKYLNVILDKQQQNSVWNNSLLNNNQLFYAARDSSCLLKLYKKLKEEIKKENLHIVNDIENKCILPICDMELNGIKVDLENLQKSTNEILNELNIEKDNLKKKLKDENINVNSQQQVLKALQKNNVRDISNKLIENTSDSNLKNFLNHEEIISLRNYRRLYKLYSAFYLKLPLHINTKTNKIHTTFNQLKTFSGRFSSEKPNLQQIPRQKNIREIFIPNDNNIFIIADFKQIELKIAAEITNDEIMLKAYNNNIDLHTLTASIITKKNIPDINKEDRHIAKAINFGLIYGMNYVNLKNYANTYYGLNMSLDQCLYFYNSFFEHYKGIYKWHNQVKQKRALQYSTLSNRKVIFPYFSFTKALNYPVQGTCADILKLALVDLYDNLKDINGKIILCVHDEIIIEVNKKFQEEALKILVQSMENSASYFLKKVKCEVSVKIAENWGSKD
structure (smiles),measurement,setting,value
O=[N+]([O-])c1cc2c(cc1CN1CCCCCC1)OCO2 [KU0004987],DNA Pol,"'DNA Pol', screening value, unit not given",33
same,% inhibition Apo pol 10',"DRC-1, concentration 2.5",6.817%
same,% inhibition Apo pol 10',"DRC-1, concentration 5",8.194%
same,% inhibition Apo pol 10',"DRC-1, concentration 10",20.8655%
same,% inhibition Apo pol 10',"DRC-1, concentration 20",39.2503%
same,% inhibition Apo pol 10',"DRC-1, concentration 40",59.1088%
same,% inhibition Apo pol 10',"DRC-1, concentration 80",75.1762%
same,% inhibition Apol 90',"DRC-1, 90', concentration 2.5",1.395%
same,% inhibition Apol 90',"DRC-1, 90', concentration 5",-0.8625%
same,% inhibition Apol 90',"DRC-1, 90', concentration 10",9.436%
same,% inhibition Apol 90',"DRC-1, 90', concentration 20",21.3205%
same,% inhibition Apol 90',"DRC-1, 90', concentration 40",39.3126%
same,% inhibition Apol 90',"DRC-1, 90', concentration 80",55.7488%
same,% inhibition apPOL 180',"DRC-1, 180', concentration 2.5",-4.392%
same,% inhibition apPOL 180',"DRC-1, 180', concentration 5",-7.266%
same,% inhibition apPOL 180',"DRC-1, 180', concentration 10",1.794%
same,% inhibition apPOL 180',"DRC-1, 180', concentration 20",10.6731%
same,% inhibition apPOL 180',"DRC-1, 180', concentration 40",27.0699%
same,% inhibition apPOL 180',"DRC-1, 180', concentration 80",43.7361%
same,% inhibition Apo pol 5',"DRC-2, 5', concentration 2.5",17%
same,% inhibition Apo pol 5',"DRC-2, 5', concentration 5",20%
same,% inhibition Apo pol 5',"DRC-2, 5', concentration 10",32%
same,% inhibition Apo pol 5',"DRC-2, 5', concentration 20",39%
same,% inhibition Apo pol 5',"DRC-2, 5', concentration 40",46%
same,% inhibition Apo pol 5',"DRC-2, 5', concentration 80",49%
same,% inhibition Apol 40',"DRC-2, 40', concentration 2.5",13%
same,% inhibition Apol 40',"DRC-2, 40', concentration 5",15%
same,% inhibition Apol 40',"DRC-2, 40', concentration 10",22%
same,% inhibition Apol 40',"DRC-2, 40', concentration 20",29%
same,% inhibition Apol 40',"DRC-2, 40', concentration 40",39%
same,% inhibition Apol 40',"DRC-2, 40', concentration 80",49%
same,% inhibition ApPOL 90',"DRC-2, 90', concentration 2.5",9%
same,% inhibition ApPOL 90',"DRC-2, 90', concentration 5",9%
same,% inhibition ApPOL 90',"DRC-2, 90', concentration 10",16%
same,% inhibition ApPOL 90',"DRC-2, 90', concentration 20",23%
same,% inhibition ApPOL 90',"DRC-2, 90', concentration 40",33%
same,% inhibition ApPOL 90',"DRC-2, 90', concentration 80",45%
same,% inhibition apPOL 180',"DRC-2, 180', concentration 2.5",0.644%
same,% inhibition apPOL 180',"DRC-2, 180', concentration 5",0.589%
same,% inhibition apPOL 180',"DRC-2, 180', concentration 10",6%
same,% inhibition apPOL 180',"DRC-2, 180', concentration 20",10%
same,% inhibition apPOL 180',"DRC-2, 180', concentration 40",22%
same,% inhibition apPOL 180',"DRC-2, 180', concentration 80",36%
same,% inhibition ApPOL 90',"conc 2.5 (unit not given), 90', DRC-2",9%
same,% inhibition ApPOL 90',"conc 5 (unit not given), 90', DRC-2",9%
same,% inhibition Apol 40',"conc 10 (unit not given), 40', DRC-2",22%
same,% inhibition Apo pol 5',"conc 20 (unit not given), 5', DRC-2",39%
same,% inhibition Apol 40',"conc 40 (unit not given), 40', DRC-2",39%
same,% inhibition apPOL 180',"conc 40 (unit not given), 180', DRC-2",22%
same,% inhibition Apo pol 5',"conc 80 (unit not given), 5', DRC-2",49%
same,% inhibition Apol 40',"conc 80 (unit not given), 40', DRC-2",49%
same,DNA Pol,"primary screen hit value, DNA Pol (186 hits)",33
